“And” between values parts separate entries of the source, which are not always exact repeats. Equal entries are not always repeated.
Legend:
CBP = CBP (Homo sapiens, UniProt Q92793); assay: Acetyltransferase activity of CBP (H3K27ac immunoblot, HEK293 cells); assay type: cell-based; conditions: for relative H3K27ac level: Fig 3d replicates, HA-CBP +, TSA-0.5uM +
Source text: Fig. 3 APC inhibits CRTC2 interacting with CREB-ZIP and reduces acetyltransferase activity of CBP by binding with CREB protein directly. a Isothermal titration calorimetry (ITC) of HIS-CREB protein solution titrated into APC solution. The bottom solid line represents a nonlinear least-squares fitted by a single-site binding model. One of two independent experiments is shown here. b IC50 of APC inhibitory activity detected by CREB–CRTC2 two-hybrid assay in HEK293T cells (n = 3 per treatment, data are represented as mean ± SEM). One of three independent experiments is shown here. c Immunoprecipitation analysis of FLAG-CRTC2-WT recovered by anti-MYC antibody from HEK293 cells co-transfected with plasmids for a Myc-Creb-Zip fragment and the FLAG-Crtc2-Wt, stimulated by FSK (10 nM) for 2-h before harvest. APC (1–10 μM) was included in immunoprecipitation mixtures as indicated. Top represents one of three independent experiments, and the relative gray density of FLAG normalized to MYC in MYC-IP- factions is shown as a bar graph (bottom, n = 3). Data are represented as mean ± SEM; P values were determined by one-way ANOVA followed Dunnett’s multiple comparisons test. d Immunoblotting analysis of the acetyltransferase activity of CBP. The protein levels of H3K27ac and total Histone H3 were determined using specific antibodies from HEK293 cell lysate overexpressing HA-Cbp plasmid. […] The top represents one of three independent experiments, and the relative gray density of H3K27ac normalized to total Histone H3 in cell lysate is shown as a bar graph (bottom, n = 3). Data are represented as mean ± SEM; P values were determined by one-way ANOVA followed Dunnett’s multiple comparisons test. ns, P > 0.05; *P < 0.05; **P < 0.01. Sources data for this figure are provided as source data file.

FGF21 = assay: Immunoblotting of plasma and liver FGF21; assay type: in vivo, mouse

Sequence of CBP (Q92793 whole entry): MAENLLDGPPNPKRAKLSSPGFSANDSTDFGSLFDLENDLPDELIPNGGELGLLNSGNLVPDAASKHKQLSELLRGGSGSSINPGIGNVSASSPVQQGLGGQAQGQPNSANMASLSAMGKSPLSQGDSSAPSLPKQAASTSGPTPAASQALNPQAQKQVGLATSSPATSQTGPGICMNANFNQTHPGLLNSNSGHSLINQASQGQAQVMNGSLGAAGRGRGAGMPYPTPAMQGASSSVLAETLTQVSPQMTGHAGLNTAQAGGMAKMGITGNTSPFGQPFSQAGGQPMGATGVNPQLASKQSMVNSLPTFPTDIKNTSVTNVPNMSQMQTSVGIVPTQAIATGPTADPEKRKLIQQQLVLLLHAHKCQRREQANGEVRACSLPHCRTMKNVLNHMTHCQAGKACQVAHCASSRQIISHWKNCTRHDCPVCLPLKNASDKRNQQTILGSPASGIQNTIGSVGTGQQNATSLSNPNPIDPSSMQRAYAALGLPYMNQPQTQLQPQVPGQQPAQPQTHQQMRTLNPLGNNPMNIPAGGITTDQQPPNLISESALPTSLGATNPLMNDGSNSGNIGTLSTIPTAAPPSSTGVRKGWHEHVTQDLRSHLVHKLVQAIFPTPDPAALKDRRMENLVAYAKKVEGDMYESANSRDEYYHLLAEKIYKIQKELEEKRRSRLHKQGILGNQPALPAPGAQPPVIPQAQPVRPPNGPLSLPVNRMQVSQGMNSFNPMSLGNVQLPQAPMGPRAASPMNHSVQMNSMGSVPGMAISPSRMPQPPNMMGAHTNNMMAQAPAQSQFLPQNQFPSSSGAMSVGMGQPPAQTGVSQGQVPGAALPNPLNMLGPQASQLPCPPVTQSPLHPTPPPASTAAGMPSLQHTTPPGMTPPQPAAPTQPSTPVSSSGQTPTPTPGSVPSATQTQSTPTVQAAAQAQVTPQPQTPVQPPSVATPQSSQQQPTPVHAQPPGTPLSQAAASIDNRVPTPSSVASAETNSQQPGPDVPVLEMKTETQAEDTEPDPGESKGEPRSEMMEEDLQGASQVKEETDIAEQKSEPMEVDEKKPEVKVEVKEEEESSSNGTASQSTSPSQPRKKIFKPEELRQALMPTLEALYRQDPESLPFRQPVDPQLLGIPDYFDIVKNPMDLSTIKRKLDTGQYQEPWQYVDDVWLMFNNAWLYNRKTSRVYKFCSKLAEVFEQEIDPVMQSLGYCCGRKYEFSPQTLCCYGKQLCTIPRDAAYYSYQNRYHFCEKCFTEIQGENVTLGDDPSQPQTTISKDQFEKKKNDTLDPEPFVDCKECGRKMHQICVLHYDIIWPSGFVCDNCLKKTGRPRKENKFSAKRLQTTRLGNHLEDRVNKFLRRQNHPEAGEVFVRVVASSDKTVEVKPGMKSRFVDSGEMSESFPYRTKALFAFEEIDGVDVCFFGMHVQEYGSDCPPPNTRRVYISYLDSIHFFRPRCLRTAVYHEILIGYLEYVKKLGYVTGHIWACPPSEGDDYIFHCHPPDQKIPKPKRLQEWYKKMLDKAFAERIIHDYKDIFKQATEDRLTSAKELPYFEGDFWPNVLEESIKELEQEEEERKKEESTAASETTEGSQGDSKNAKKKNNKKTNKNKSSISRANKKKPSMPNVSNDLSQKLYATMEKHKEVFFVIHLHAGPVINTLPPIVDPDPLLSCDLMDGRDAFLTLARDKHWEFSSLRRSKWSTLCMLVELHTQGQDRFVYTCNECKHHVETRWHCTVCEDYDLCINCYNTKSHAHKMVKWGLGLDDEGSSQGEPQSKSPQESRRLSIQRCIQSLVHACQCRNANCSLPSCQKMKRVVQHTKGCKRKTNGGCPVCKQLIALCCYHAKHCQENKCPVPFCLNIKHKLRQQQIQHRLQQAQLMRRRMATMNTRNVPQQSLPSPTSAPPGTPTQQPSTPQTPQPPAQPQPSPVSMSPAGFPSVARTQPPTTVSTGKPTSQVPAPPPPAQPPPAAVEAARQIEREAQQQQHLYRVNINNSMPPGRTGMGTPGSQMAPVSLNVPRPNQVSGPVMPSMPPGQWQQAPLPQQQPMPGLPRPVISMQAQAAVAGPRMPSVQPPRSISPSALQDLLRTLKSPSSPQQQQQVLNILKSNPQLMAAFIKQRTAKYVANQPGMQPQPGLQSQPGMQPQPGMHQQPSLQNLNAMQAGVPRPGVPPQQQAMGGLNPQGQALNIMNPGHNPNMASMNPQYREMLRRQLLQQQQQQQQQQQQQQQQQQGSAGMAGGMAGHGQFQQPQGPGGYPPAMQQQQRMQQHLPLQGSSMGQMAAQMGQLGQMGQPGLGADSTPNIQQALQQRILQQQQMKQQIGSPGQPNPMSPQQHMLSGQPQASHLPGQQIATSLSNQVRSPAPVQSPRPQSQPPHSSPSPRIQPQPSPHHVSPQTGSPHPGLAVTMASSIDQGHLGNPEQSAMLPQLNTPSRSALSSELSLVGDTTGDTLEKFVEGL

**Q.** What does the source list for `CC(C)=CCc1cc(C=CC(=O)O)cc(CC=C(C)C)c1O` [APC, 3,5-diprenyl-4-hydroxycinnamic acid]?
**A.** relative H3K27ac level (CBP; APC 2 uM): 1.193 and 1.187 and 1.293; relative H3K27ac level (CBP; APC 5 uM): 0.5384 and 0.3648 and 0.6529; acetylation level of H3K27ac induced by CBP (CBP; HEK293 cells overexpressing HA-Cbp): dose-dependently reduced; liver FGF21 in WT, group mean (Mean 2) (FGF21; Supp. Fig.10 f down, WT mice, n=3, VEH mean 1.024): 2.405; Bands density of FGF21 in the liver (FGF21; Supp. Fig.10 f down, WT mice, oral, individual replicates, Veh about 1.02): 2.277 and 2.103 and 2.8341; Bands density, plasma FGF21 in WT (FGF21; Supp. Fig.10 f up, WT mice, individual replicates, VEH about 1.08): 1.716 and 1.667 and 1.521; Bands density, plasma FGF21 in WT, group mean (Mean 2) (FGF21; Supp. Fig.10 f up, WT mice, n=3, VEH mean 1.077): 1.634; plasma and liver FGF21 (FGF21; wild-type control group, oral 20 mg/kg, 3 weeks): increased

Reference: publication PMC8752738, “A propolis-derived small molecule ameliorates metabolic syndrome in obese mice by targeting the CREB/CRTC2 transcriptional complex” (Nature Communications, 2022)
